Results reported in ChEMBL document CHEMBL4229383, “Antiproliferative efficacy of curcumin mimics through microtubule destabilization” (Eur J Med Chem, 2018).
The source made the active and inactive calls. The calls are words filed in the database; no cut-off is given here.

Legend:
Mus musculus [1] = assay: Toxicity in Swiss mouse implanted with mouse EAC cells assessed as body weight at 20 mg/kg, ip measured on day 5 post dose (reference value: 23.7g); assay type: organism-based; details: in vivo
Mus musculus [2] = assay: Toxicity in Swiss mouse implanted with mouse EAC solid tumor cells assessed as body weight at 22 mg/kg, ip measured on day 9 post dose (reference value: 26.7 g); assay type: organism-based; details: in vivo
Mus musculus [3] = assay: Toxicity in Swiss mouse implanted with mouse EAC cells assessed as body weight at 20 mg/kg, ip measured on day 9 post dose (reference value: 30.55g); assay type: organism-based; details: in vivo
Mus musculus [4] = assay: Toxicity in Swiss mouse implanted with mouse EAC cells assessed as body weight at 20 mg/kg, ip measured on day 5 post dose (reference value: 26.33g); assay type: organism-based; details: in vivo
Mus musculus [5] = assay: Toxicity in Swiss mouse implanted with mouse EAC solid tumor cells assessed as body weight at 22 mg/kg, ip measured on day 1 post dose (reference value: 25 g); assay type: organism-based; details: in vivo
Mus musculus [6] = assay: Toxicity in Swiss mouse implanted with mouse EAC solid tumor cells assessed as body weight at 22 mg/kg, ip measured on day 5 post dose (reference value: 26.7 g); assay type: organism-based; details: in vivo
Mus musculus [7] = assay: Toxicity in Swiss mouse implanted with mouse EAC cells assessed as body weight at 20 mg/kg, ip measured on day 1 post dose (reference value: 22g); assay type: organism-based; details: in vivo
Mus musculus [8] = assay: Toxicity in Swiss mouse implanted with mouse EAC cells assessed as mortality at 20 mg/kg, ip from day 1 to 9 and measured on day 12 post dose; assay type: organism-based; details: in vivo
Ehrlich [9] = assay: Antitumor activity against mouse EAC cells implanted in Swiss mouse assessed as solid tumor growth inhibition at 22 mg/kg, ip from day 1 to 9 and measured on day 13 post dose relative to control; assay type: functional; details: read-out: TGI
Mus musculus [10] = assay: Toxicity in Swiss mouse implanted with mouse EAC cells assessed as body weight at 20 mg/kg, ip measured on day 12 post dose (reference value: 35.5g); assay type: organism-based; details: in vivo
Mus musculus [11] = assay: Toxicity in Swiss mouse implanted with mouse EAC cells assessed as body weight at 20 mg/kg, ip measured on day 9 post dose (reference value: 28.66g); assay type: organism-based; details: in vivo
Mus musculus [12] = assay: Toxicity in Swiss mouse implanted with mouse EAC cells assessed as body weight at 20 mg/kg, ip measured on day 1 post dose (reference value: 24.77g); assay type: organism-based; details: in vivo
Ehrlich [13] = assay: Antitumor activity against mouse EAC cells implanted in Swiss mouse assessed as tumor growth inhibition at 20 mg/kg, ip from day 1 to 9 and measured on day 12 post dose relative to control; assay type: functional; details: read-out: TGI
Mus musculus [14] = assay: Toxicity in Swiss mouse implanted with mouse EAC cells assessed as body weight at 20 mg/kg, ip measured on day 12 post dose (reference value: 32.5g); assay type: organism-based; details: in vivo
Mus musculus [15] = assay: Toxicity in Swiss mouse implanted with mouse EAC solid tumor cells assessed as body weight at 22 mg/kg, ip from day 1 to 9 and measured on day 13 post dose (reference value: 26.9g); assay type: organism-based; details: in vivo
A-431 = assay: Cytotoxicity against human A431 cells preincubated for 4 hrs followed by incubation in compound free media for 24 hrs by MTT assay; assay type: functional, cell-based
MCF7 = assay: Cytotoxicity against human MCF7 cells preincubated for 4 hrs followed by incubation in compound free media for 24 hrs by MTT assay; assay type: functional, cell-based
DLD-1 = assay: Cytotoxicity against human DLD1 cells preincubated for 4 hrs followed by incubation in compound free media for 24 hrs by MTT assay; assay type: functional, cell-based
[16] = Inhibition of porcine brain tubulin polymerization measured every min for 1 hr; design: species or system Sus scrofa
WRL68 = assay: Cytotoxicity against human WRL68 cells preincubated for 4 hrs followed by incubation in compound free media for 24 hrs by MTT assay; assay type: functional, cell-based
Sus scrofa = species on record: Sus scrofa; assay: Inhibition of porcine brain tubulin polymerization at 20 uM measured every min for 1 hr
A549 = assay: Cytotoxicity against human A549 cells preincubated for 4 hrs followed by incubation in compound free media for 24 hrs by MTT assay; assay type: functional, cell-based

| SMILES | IC50 (A-431) | IC50 (MCF7) | IC50 (DLD-1) | IC50 (WRL68) | IC50 (A549) | other results |
| --- | --- | --- | --- | --- | --- | --- |
| O=c1[nH]cc(F)c(=O)[nH]1 [FLUOROURACIL] | – | – | – | – | – | Activity (Mus musculus [1]): 22.57 g; Activity (Mus musculus [2]): 24.71 g; Activity (Mus musculus [3]): 24.57 g; Activity (Mus musculus [4]): 25.85 g; Activity (Mus musculus [5]): 26.42 g; Activity (Mus musculus [6]): 25.14 g; Activity (Mus musculus [7]): 22.85 g; Activity (Mus musculus [8]): Non-Toxic; inhibition in vivo at 22 mg/kg (Ehrlich [9]): 51%; Activity (Mus musculus [10]): 24.14 g; Activity (Mus musculus [11]): 21.71 g; Activity (Mus musculus [12]): 25.85 g; inhibition in vivo at 20 mg/kg (Ehrlich [13]): 96.4 to 96.8%; Activity (Mus musculus [14]): 21.42 g; Activity (Mus musculus [15]): 24.85 g |
| CC/C(=C(\c1ccccc1)c1ccc(OCCN(C)C)cc1)c1ccccc1 [TAMOXIFEN] | > 100 µM | 8.61 µM | 16.3 µM | – | – | – |
| COc1cc(/C=C/C(=O)CC(=O)/C=C/c2ccc(O)c(OC)c2)ccc1O [CURCUMIN] | > 100 µM | 22.1 µM | > 40 µM | 27.8 µM | 43.9 µM | IC50 [16]: 5120 nM; inhibition (Sus scrofa): Active |
| O=C(/C=C/c1ccc2c(c1)OCO2)c1cccc(C(=O)/C=C/c2ccc3c(c2)OCO3)c1 | 10 µM | > 100 µM | 16.5 µM | > 100 µM | 18.7 µM | – |
| COc1cc(/C=C/C(=O)CC(=O)/C=C/c2ccc(O)cc2)ccc1O | > 100 µM | 92.1 µM | > 40 µM | 26.3 µM | 28.2 µM | – |
| COc1cc([C@@H]2c3cc4c(cc3[C@H](O)[C@H]3COC(=O)[C@H]23)OCO4)cc(OC)c1OC [PODOFILOX] | > 100 µM | 4.16 µM | 0.11 µM | 3.02 µM | 5.61 µM | IC50 [16]: 780 nM |
| O=C(/C=C/c1ccc(/C=C/C(=O)c2ccc3c(c2)OCO3)cc1)c1ccc2c(c1)OCO2 | > 100 µM | 30.6 µM | > 40 µM | 80.1 µM | > 100 µM | – |
| O=C(/C=C/c1ccc(O)cc1)CC(=O)/C=C/c1ccc(O)cc1 [BISDEMETHOXYCURCUMIN] | > 100 µM | 48.9 µM | > 40 µM | 45.4 µM | – | – |
